“Also recorded” adds a separate entry of the source.
Key:
[1] = hydrolytic stability of esters stirred with concentrated aqueous ammonium hydroxide; assay type: physicochemical; settings: 2 days or comparable conditions
Source text: The acrylate and methacrylate esters from Examples D1-D11 were fully recoverable with essentially no degradation after being stirred with concentrated aqueous ammonium hydroxide for a period of 2 days.

[2] = Chem. Res. Toxicol. 1996, 9, 689-95; cited from earlier work
[3] = system: rats; assay: acute LD50, one-time feeding study of rats; assay type: in vivo, rat; settings: for toxicity rating: acute
Procedure: Acute LD50 measurements for a one-time feeding study of rats were determined over a 21 day period for both the α-branched perfluorocarboxylate salt, C7 F15 CF(CF3)COO^- NH4^+, and its straight chain isomer, CF3 (CF2)8 COO^- NH4^+.

[4] = system: rat; assay: exhaust gas monitoring of dosed rat in uptake desiccator chamber; assay type: in vivo; settings: 500 mg/kg
Procedure: Additional biological testing of C7 F15 CF(CF3)COO^- NH4^+ in rats was conducted using the following test apparatus. An uptake desiccator jar chamber was designed with top and bottom portions, the top portion equipped with an inlet port, an outlet port, oxygen monitor and pressure gage. An oxygen gas tank supplied oxygen into the inlet port, and the oxygen level in the chamber was maintained at a normal ambient level as measured by the oxygen monitor and pressure gage. The outlet port was connected in series with a carbon dioxide scrubber and particulate filter, which in turn was connected to a loop containing a stainless steel bellows pump operating at about 2 L/min. Most of the gas in the loop was recycled into the inlet port, but about 100 mL/min was directed through a secondary loop to a gas chromatograph equipped with a 0.5 mL gas sampling loop.
A rat dosed at 500 mg/kg was placed in the bottom portion of the chamber, the top portion was attached, and the assembled chamber was placed in an ice-filled pan to allow for the condensation of water. The oxygen flow was started, and the exhaust gases were monitored for the presence of CF3 CF=CF(C6 F13) and C7 F15 CFHCF3, aqueous degradation products of C7 F15 CF(CF3)COOH, using known standards of this olefin and hydride in the gas chromatograph. […] After 24 minutes, one slight chromatographic peak was noted, corresponding to the monohydride. After 92 minutes, the peak became noticeably larger and a second peak formed, corresponding to the olefin.

[5] = emulsion polymerization of vinylidene fluoride and hexafluoropropylene with surfactant as emulsifier
Source text: The following procedure was used to evaluate C7 F15 CF(CF3)COO^- NH4^+ (from Ex. M1) as an emulsifier to copolymerize hexafluoropropylene (HFP) and vinylidene fluoride.
A 1 gallon, vertically agitated stainless steel reactor with pressure and temperature controls was evacuated and twice purged with nitrogen. Using an isolated vacuum, a solution comprised of 2 g of ammonium persulfate (initiator) and 6 g of dipotassium phosphate dissolved in 2800 g of deionized water was introduced into the reactor. The remaining vacuum on the reactor was vented with nitrogen, and the solution was degassed twice under agitation using alternate vacuum and nitrogen purges. […] The reactor was vented with nitrogen, the solution was agitated very briefly, and the reactor was evacuated of nitrogen and isolated. Then the reactor was vented with hexafluoropropylene monomer to a pressure of approximately 10 psig (1280 torr total pressure), and the temperature of the batch was raised to 72° C. with high agitation. Maintaining the temperature at 72° C., a monomer mixture of 60% (wt) of vinylidene fluoride and 40% (wt) hexafluoropropylene was fed from a tared gas cylinder into the head space of the reactor to maintain a reactor pressure of 130 psig (7480 total pressure). After feeding in about 1 kg of monomer blend (approximately 3.75 hours duration), the introduction of monomer was ceased, the reaction was allowed to cool to room temperature, and any residual unreacted monomer was vented.
The resulting latex polymer was drained from the reactor, and percent solids of the latex was determined to be 25% by weight as measured by drying 10 g of latex in a forced air oven for 16 hours at 105° C.
The reactor body was separated from the reactor head, and a visual inspection of the reactor was made to determine the amount of coagulated polymer in the reactor (the amount should be minimal in a good polymerization reaction). A qualitative rating was assessed, ranging from "none" to "little" to "some."
The latex stability was determined by half filling a 16 oz (450 mL) jar with latex and shaking several hours in the horizontal position, quantitatively rating the latex after shaking using a 3-point scale ranging from 0=very stable to 3=unstable.
Particle size in the latex was determined using 90° scattering on a Coulter sub-micron particle size analyzer.
Degree of foaming was rated using the following qualitative scale: 0=not foamy, 1=slightly foamy, 2=moderately foamy, and 3=very foamy.
In Example P2, the same experiment was run as in Example P1, except that the concentration of C7 F15 CF(CF3)COO^- NH4^+emulsifier was raised to 3500 ppm, the reaction time decreased from 3.75 to 3.5 hours, and the reaction temperature increased from 72° C. to 78° C.
In Comparative Examples P3-P6, the same experiment was run as in Example P1, except that C8 F17 SO2 N(C2 H5)CH2 COO^- K^+ (Fluorad™ FC-128 Fluorochemical Surfactant, available from 3M Company, St. Paul, Minn.), C7 F15 COO^- H4 N^+ (Fluorad™ FC-143 Fluorochemical Surfactant), and Surflon™ S111S Fluorochemical Surfactant (believed to be nominally telomer-based n-C9 F19 COO^- H4 N^+, commercially available from Asahi Glass Corp., Japan) were substituted for C7 F15 CF(CF3)COO^- H4 N^+ emulsifier.
In Comparative Example P7, the same experiment was run as in Example P1, except that no emulsifier was used.

[6] = surface tension of aqueous surfactant solutions and critical micelle concentration (K-12 Processor Tensiometer); assay type: physicochemical; settings: carboxylate salts, deionized water; Table 5
Source text: Critical Micelle Concentration (CMC): The critical micelle concentration is defined as the concentration at which further surface tension is no longer lowered with increasing levels of surfactant. […] Surface tension is then plotted vs. log concentration and the data points are connected. The resulting curve has a nearly horizontal flat portion at concentrations above the CMC and has a negative steep slope at concentrations below the CMC. The CMC is defined as the lowest surfactant concentration in the horizontal flat portion of the curve.
(§1) Then the critical micelle concentration (CMC) was determined for each surfactant.
as §1

[7] = thermal degradation of neat perfluorocarboxylate salts by thermogravimetric analysis; assay type: physicochemical; settings: TGA 10° C./min, nitrogen
Source text: Thermal degradation measurements were made on a series of neat perfluorocarboxylate salts, including several α-branched open chain structures (Examples N2-N9), a primarily linear open chain structure (Example N10--Fluorad™ FC-143 Fluorochemical Surfactant, commercially available from 3M Company, St. Paul, Minn.), and a closed chain (i.e., cyclic) structure (Example N11- made by the electrochemical fluorination of benzoic acid and hydrolysis in the presence of KOH, as described in U.S. Pat. No. 2,567,011 (Diesslin et al.)).
The perfluorocarboxylate salts were tested using a Perkin-Elmer TGA 7 thermogravimetric analysis apparatus and a salt sample size of approximately 5 mg, a heating rate of 10° C./min, and a nitrogen gas flow rate of 40-45 mL/min. Using the TGA 7 software, the following temperatures were recorded: (1) the onset temperature of decomposition, (2) the temperature at which 50% of the sample weight was lost, and (3) the temperature at which 90% of the sample weight was lost.

[8] = degradation of aqueous salt solution stored at room temperature; assay type: physicochemical; settings: same 1 year period
Procedure: The α-branched open chain ammonium salt compounds from Examples N3-N6 were dissolved in deionized water at a concentration of 5% by weight (0.5 g ammonium salt in 10 mL water) and were stored at room temperature.

C=CC(=O)OCCOC(=O)C(F)(F)C(F)(F)C(F)(F)C(F)(F)C(F)(F)C(F)(F)C(F)(F)F [C7 F15 COOCH2 CH2 OCOCH=CH2]
hydrolytic stability [1]: readily hydrolyzed

O=C(O)C(F)(F)C(F)(F)C(F)(F)C(F)(F)C(F)(F)C(F)(F)C(F)(F)C(F)(F)C(F)(F)F [C9 F19 COO^- NH4^+, reference compound]
toxicity [2]: moderately toxic | toxicity relative to the α-branched isomer ([3]; LD50 based): ca. 10 times | toxicity rating [3]: moderately toxic | wasting syndrome ([3]; one-time feeding): Wasting syndrome was observed

O=C(O)C(F)(C(F)(F)F)C(F)(F)C(F)(F)C(F)(F)C(F)(F)C(F)(F)C(F)(F)C(F)(F)F (stereo not shown) [Example M14, C7 F15 CF(CF3)COO^- H4 N^+]
toxicity rating ([3]; listed as C7 F15 CF(CF3)COO^- NH4^+): relatively low toxicity; also recorded: only slightly toxic | time after which rats began regaining weight ([3]; one-time feeding): 3 days | time of deaths from toxic doses ([3]; one-time feeding): 2 to 3 days | wasting syndrome ([3]; one-time feeding): No wasting syndrome was noted | post-exposure observation of toxicity [4]: no evidence of toxicity (death) or evidence of wasting syndrome | time to second peak (olefin) in exhaust gas; monohydride peak noticeably larger [4]: 92 min | time to slight peak of monohydride in exhaust gas [4]: 24 min | olefin and monohydride peaks in exhaust gas ([4]; after 217 minutes): both peaks became significantly larger | olefin or hydride in exhaust gas ([4]; initially): no olefin or hydride were detected | Latex Stability ([5]; 350 ppm emulsifier): 2 | Latex Stability ([5]; 3500 ppm emulsifier): 0 | CMC [6]: 2500 ppm | Surf. Tens. at the CMC [6]: 16.5 dynes/cm

O=C(O)C(F)(C(F)(F)F)C(F)(F)C(F)(F)C(F)(F)C(F)(F)C(F)(F)F (stereo not shown) [Example M28, C5 F11 CF(CF3)COO^- Na^+]
Temperature for 50% loss ([7]; listed as N8): 250 °C

O=C(O)C(F)(F)C(F)(F)C(F)(F)C(F)(F)C(F)(F)C(F)(F)C(F)(F)F [FC-143, C7 F15 COO^- H4 N^+]
degradation over 1 year (would show) [8]: no signs of degradation | Latex Stability ([5]; 350 ppm emulsifier): 2 | CMC [6]: 8000 ppm | Surf. Tens. at the CMC [6]: 21.5 dynes/cm

CCN(CC(=O)O)S(=O)(=O)C(F)(F)C(F)(F)C(F)(F)C(F)(F)C(F)(F)C(F)(F)C(F)(F)C(F)(F)F [Fluorad ™ FC-128, C8 F17 SO2 N(C2 H5)CH2 COO^- K^+]
Latex Stability ([5]; 100 ppm emulsifier): 2 | Latex Stability ([5]; 350 ppm emulsifier): 0

O=C(O)C1(F)C(F)(F)C(F)(F)C(F)(F)C(F)(F)C1(F)F [U.S. Pat. No. 2,567,011]
Onset temperature of decomposition [7]: 100 °C | Temperature for 50% loss [7]: 110 °C | Temperature for 90% loss [7]: 120 °C

Source: US6013795A, “Alpha-branched fluoroalkylcarbonyl fluorides and their derivatives” (3M Innovative Properties Company, priority 1996, dated 2000)
